# Legend:
# crabgrass = assay: Test B pre/postemergence crabgrass; assay type: in vivo, Digitaria sanguinalis
# Summary of the method: (§1)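 Herbicidal effect was estimated by eye on a ten-point control scale after plants spent twelve to sixteen days in a greenhouse following soil or foliar treatment. Foliar sprays targeted plants at one to four leaves; all doses were formulated in a non-phytotoxic solvent with surfactant.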
# rape = assay: Test B pre/postemergence rape; assay type: in vivo, Brassica napus
# Summary of the method: as §1
# velvetleaf = assay: Test B pre/postemergence velvetleaf; assay type: in vivo, Abutilon theophrasti
# Summary of the method: as §1
# morningglory = assay: Test B pre/postemergence morningglory; assay type: in vivo, Ipomoea hederacea
# Summary of the method: as §1
# giant foxtail = assay: Test B pre/postemergence giant foxtail; assay type: in vivo, Setaria faberii
# Summary of the method: as §1
# wheat = assay: Test B pre/postemergence wheat; assay type: in vivo, Triticum aestivum
# Summary of the method: as §1
# corn = assay: Test B pre/postemergence corn; assay type: in vivo, Zea mays
# Summary of the method: as §1
# surinam grass = assay: Test B pre/postemergence surinam grass; assay type: in vivo, Brachiaria decumbens
# Summary of the method: as §1
# cocklebur = assay: Test B pre/postemergence cocklebur; assay type: in vivo, Xanthium strumarium
# Summary of the method: as §1
# sugar beet = assay: Test B pre/postemergence sugar beet; assay type: in vivo, Beta vulgaris
# Summary of the method: as §1
# purple nutsedge = assay: Test B pre/postemergence purple nutsedge; assay type: in vivo, Cyperus rotundus
# Summary of the method: as §1
# soybean = assay: Test B pre/postemergence soybean; assay type: in vivo, Glycine max
# Summary of the method: as §1
# wild oat = assay: Test B pre/postemergence wild oat; assay type: in vivo, Avena fatua
# Summary of the method: as §1
# blackgrass = assay: Test B pre/postemergence blackgrass; assay type: in vivo, Alopecurus myosuroides
# Summary of the method: as §1
# pigweed = assay: Test B pre/postemergence pigweed; assay type: in vivo, Amaranthus retroflexus
# Summary of the method: as §1
# bedstraw = assay: Test B pre/postemergence bedstraw; assay type: in vivo, Galium aparine
# Summary of the method: as §1
# [1] = Postemergence, Rate 62 g/ha, scale 0 to 10, 0 is no effect, 10 is complete control
# [2] = Postemergence, Rate 125 g/ha, scale of 0 to 10 where 0 is no effect and 10 is complete control
# [3] = Preemergence, Rate 125 g/ha, scale of 0 to 10 where 0 is no effect and 10 is complete control
# [4] = Preemergence, Rate 250 g/ha, scale 0 (no effect) to 10 (complete control)
# [5] = Rate 62 g/ha, Preemergence, scale 0 to 10
# [6] = Rate 250 g/ha, Postemergence, scale 0 to 10, 0 is no effect, 10 is complete control
# [7] = Rate 500 g/ha, Preemergence, scale 0 to 10 (0 no effect, 10 complete control)
# [8] = Rate 500 g/ha, Postemergence, scale 0 to 10, 0 is no effect, 10 is complete control
smiles,measurement,setting,value
CC(C)N(C(=O)n1oc(=O)n(CCCCl)c1=O)c1ccccc1 [Compound 750],"Plant response rating, Crabgrass",crabgrass; [1],7
same,Crabgrass plant response rating,crabgrass; [2],9
same,"Plant response rating, Crabgrass",crabgrass; [3],9
same,Crabgrass plant response rating,crabgrass; [4],9
same,Crabgrass plant response rating,crabgrass; [5],9
same,Crabgrass plant response rating,crabgrass; [6],9
same,Crabgrass plant response rating,crabgrass; [7],10
same,"Plant response rating, Rape",rape; [1],0
same,Rape plant response rating,rape; [2],4
same,"Plant response rating, Rape",rape; [3],0
same,Rape plant response rating,rape; [4],8
same,Rape plant response rating,rape; [5],0
same,Rape plant response rating,rape; [6],6
same,Rape plant response rating,rape; [8],7
same,"Plant response rating, Velvetleaf",velvetleaf; [1],0
same,Velvetleaf plant response rating,velvetleaf; [2],3
same,"Plant response rating, Velvetleaf",velvetleaf; [3],0
same,Velvetleaf plant response rating,velvetleaf; [4],7
same,Velvetleaf plant response rating,velvetleaf; [5],0
same,Velvetleaf plant response rating,velvetleaf; [6],5
same,Velvetleaf plant response rating,velvetleaf; [8],6
same,Velvetleaf plant response rating,velvetleaf; [7],7
same,"Plant response rating, Morningglory",morningglory; [1],3
same,Morningglory plant response rating,morningglory; [2],3
same,"Plant response rating, Morningglory",morningglory; [3],0
same,Morningglory plant response rating,morningglory; [4],6
same,Morningglory plant response rating,morningglory; [5],0
same,Morningglory plant response rating,morningglory; [6],8
same,Morningglory plant response rating,morningglory; [8],10
same,Morningglory plant response rating,morningglory; [7],6
same,"Plant response rating, Giant foxtail",giant foxtail; [1],9
same,Giant foxtail plant response rating,giant foxtail; [2],8
same,"Plant response rating, Giant foxtail",giant foxtail; [3],10
same,Giant foxtail plant response rating,giant foxtail; [4],10
same,Giant foxtail plant response rating,giant foxtail; [5],9
same,Giant foxtail plant response rating,giant foxtail; [6],8
same,Giant foxtail plant response rating,giant foxtail; [8],8
same,Giant foxtail plant response rating,giant foxtail; [7],10
same,"Plant response rating, Wheat",wheat; [1],0
same,Wheat plant response rating,wheat; [2],0
same,"Plant response rating, Wheat",wheat; [3],4
same,Wheat plant response rating,wheat; [4],5
same,Wheat plant response rating,wheat; [5],2
same,Wheat plant response rating,wheat; [6],2
same,Wheat plant response rating,wheat; [8],2
same,"Plant response rating, Corn",corn; [1],0
same,Corn plant response rating,corn; [2],0
same,"Plant response rating, Corn",corn; [3],3
same,Corn plant response rating,corn; [5],0
same,Corn plant response rating,corn; [6],0
same,Corn plant response rating,corn; [8],5
same,Corn plant response rating,corn; [7],6
same,"Plant response rating, B. signalgrass",surinam grass; [1],0
same,B. signalgrass plant response rating,surinam grass; [2],2
same,B. signalgrass plant response rating,"surinam grass; Preemergence, Rate 62 g/ha, scale of 0 to 10 where 0 is no effect and 10 is complete control",5
same,"Plant response rating, B. signalgrass",surinam grass; [3],10
same,B. signalgrass plant response rating,surinam grass; [4],8
same,B. signalgrass plant response rating,surinam grass; [6],6
same,B. signalgrass plant response rating,surinam grass; [8],6
same,"Plant response rating, Cocklebur",cocklebur; [1],0
same,Cocklebur plant response rating,cocklebur; [2],0
same,"Plant response rating, Cocklebur",cocklebur; [3],0
same,Cocklebur plant response rating,cocklebur; [4],0
same,Cocklebur plant response rating,cocklebur; [5],0
same,Cocklebur plant response rating,cocklebur; [6],1
same,Cocklebur plant response rating,cocklebur; [8],3
same,Cocklebur plant response rating,cocklebur; [7],0
same,"Plant response rating, Sugarbeets",sugar beet; [1],0
same,Sugarbeets plant response rating,sugar beet; [2],3
same,"Plant response rating, Sugarbeets",sugar beet; [3],3
same,Sugarbeets plant response rating,sugar beet; [4],5
same,Sugarbeets plant response rating,sugar beet; [5],1
same,Sugarbeets plant response rating,sugar beet; [6],3
same,Sugarbeets plant response rating,sugar beet; [8],6
same,"Plant response rating, Nutsedge",purple nutsedge; [1],0
same,Nutsedge plant response rating,purple nutsedge; [2],0
same,"Plant response rating, Nutsedge",purple nutsedge; [3],0
same,Nutsedge plant response rating,purple nutsedge; [4],7
same,Nutsedge plant response rating,purple nutsedge; [5],0
same,Nutsedge plant response rating,purple nutsedge; [6],7
same,Nutsedge plant response rating,purple nutsedge; [7],9
same,"Plant response rating, Soybean",soybean; [1],2
same,Soybean plant response rating,soybean; [2],6
same,"Plant response rating, Soybean",soybean; [3],0
same,Soybean plant response rating,soybean; [4],5
same,Soybean plant response rating,soybean; [5],0
same,Soybean plant response rating,soybean; [6],7
same,Soybean plant response rating,soybean; [8],7
same,Soybean plant response rating,soybean; [7],5
same,"Plant response rating, Wild oats",wild oat; [1],0
same,Wild oats plant response rating,wild oat; [2],0
same,"Plant response rating, Wild oats",wild oat; [3],5
same,Wild oats plant response rating,wild oat; [4],7
same,Wild oats plant response rating,wild oat; [5],0
same,Wild oats plant response rating,wild oat; [6],0
same,Wild oats plant response rating,wild oat; [8],0
same,"Plant response rating, Blackgrass",blackgrass; [1],4
same,Blackgrass plant response rating,blackgrass; [2],7
same,"Plant response rating, Blackgrass",blackgrass; [3],8
same,Blackgrass plant response rating,blackgrass; [4],8
same,Blackgrass plant response rating,blackgrass; [5],7
same,Blackgrass plant response rating,blackgrass; [6],7
same,Blackgrass plant response rating,blackgrass; [8],8
same,"Plant response rating, Redroot pigweed",pigweed; [1],4
same,Redroot pigweed plant response rating,pigweed; [2],7
same,"Plant response rating, Redroot pigweed",pigweed; [3],9
same,Redroot pigweed plant response rating,pigweed; [4],10
same,Redroot pigweed plant response rating,pigweed; [5],7
same,Redroot pigweed plant response rating,pigweed; [6],7
same,Redroot pigweed plant response rating,pigweed; [8],7
same,"Plant response rating, Bedstraw",bedstraw; [1],5
same,"Plant response rating, Bedstraw",bedstraw; [3],0
same,Bedstraw plant response rating,bedstraw; [4],0
same,Bedstraw plant response rating,bedstraw; [5],0
same,Bedstraw plant response rating,bedstraw; [6],7
same,Bedstraw plant response rating,bedstraw; [8],10
